Measurements taken from PMC6591174, “The beneficial androgenic action of steroidal aromatase inactivators in estrogen-dependent breast cancer after failure of nonsteroidal drugs” (Cell Death & Disease, 2019).

Key:
Format in all cases: cell-based, human
[1] = test system: ZR-75-1 cells; assay: Cell proliferation assay (CCK8), ZR-75-1; conditions: for proliferation of ZR-75-1 cells: 1 nM-10 μM, 6 days, 10% PRF-CT with 1 nM E2; for antiproliferative effect in presence of OH-Flutamide, ZR-75-1: 100 nM compound with 100 nM OH-Flutamide
Procedure: (§1) Fig. 2 Proliferative response of cancer cells to indicated compounds. a–c the effect of concentrations of different compounds on the growth of the cells. […] Cell growth was measured as described in the “Materials and methods”. The proliferation of cells is expressed as the ratio of the cells compared with the control wells (untreated cells). d, e Influence of different compounds on the cell cycle of MCF-7 cells. MCF-7 cells were cultured in 10% PRF-CT with E2 (1 nM) for 3 days before plating. Cells were seeded in six-well plates and, the next day, starved in PRF for 24 h. Cells were exposed to different compounds at a concentration of 100 nM for 72 h, and then subjected to cell-cycle analysis as described in “Materials and methods”. f MCF-7 cells on poly-L-lysine-coated glass coverslips were exposed to compounds (100 nM) in 10% PRF-CT with 1 nM E2 for 72 h. Control cells were treated with vehicle. DAPI stains DNA, and the secondary anti-mouse antibody to detect the antibody bound to Ki-67 is labeled with the cyanine dye Cy3. The cells were stained with DAPI (blue). Immunofluorescence staining of Ki-67 of cells was observed using fluorescence microscope. Red: Ki-67; blue: nucleus.Typical image is shown. Scale bars: 10 μm. Data represent a mean ± SEM of three independent experiments, each in triplicate; bars, SEM. *P ≤ 0.05 vs. control
(§2) After 24 h, cells were exposed for 3–6 days to various concentrations of compounds (1 nM– 10 μM) or left untreated. The incubation time and the compounds concentrations were chosen based on previous studies[17],[32]–[34]. The effects of the various drugs on cell proliferation at the indicated concentrations (1 nM– 10 μM) were determined by using a CCK8 kit (Dojindo Laboratories, Kumamoto, Japan) according to the manufacturer’s protocol. The absorbance at 450 nm was measured by using a Versamax microplate reader (Thermo Varioskan Flash, USA). Cell growth is expressed as the ratio of the cells compared with the control wells (untreated cells).

[2] = test system: MCF-7 cells; assay: Cell proliferation assay (CCK8), MCF-7; conditions: for proliferation of MCF-7 cells: 1 nM-10 μM, 6 days, 10% PRF-CT with 1 nM E2; for antiproliferative effect in presence of OH-Flutamide, MCF-7: 100 nM compound with 100 nM OH-Flutamide
Procedure: as §1, §2

[3] = test system: CCND1 promoter in MCF-7 cells; assay: ChIP-qPCR on the CCND1 promoter; conditions: 10^-7 M, 2 h
Procedure: Fig. 7 The effect of activated AR on CCND1 expression by changing histone modifications of its promoter. The experimental protocol was as described in “Materials and methods”. a and b The expression of the cyclin D1 protein. Blots were also probed for tubulin (bottom) to verify equal amounts of protein loaded in each lane. The densitometric evaluation is calculated by ImageJ. c The abundance of cyclin D1 mRNA has been detected by real-time reverse transcription-PCR, as described in “Materials and methods”. d–h MCF-7 cells were grown in 10 cm dishes. Confluent cultures (80%) were shifted to PRF for 24 h and then treated with indicated compounds at a concentration of 10^−7 M or left untreated in PRF-CT for 2 h. ChIPs were carried out on serum starved MCF-7 cells as described in “Materials and methods”. Cells were lysed and proteins were precipitated using antibodies against AR (d), H3K4me3 (e), H3K9me3 (f), H3K9ac (g), H3K27ac (h) or rabbit IgG (2 μg/sample each). In control samples (Ig), normal rabbit IgG was used instead of the primary antibodies as control of antibody specificity. Inputs DNA were amplified as loading controls. Five regions of CCND1 promoter were examined by quantitative PCR analysis. The region containing the ARE site was detected by PCR with specific primers (p1-ARE) for antibodies of AR and H3K4me3. Specific primers P4 and p5 were used to investigate the changes in methylation or acetylation of H3K9.
MCF-7 cells were grown in 10 cm dishes. Confluent cultures (80%) were shifted to PRF for 24 h and then treated with various drugs at a concentration of 10^–7 M (as shown in Fig. 8) or left untreated in 5% PRF-CT for 2 h. Following treatment, ChIP assay was performed as described by Morelli et al. and using a simple Chip plus Sonication Chromatin IP kit (Cell Signaling Technology, #56383), following the manufacturer’s protocol. The cells were sonicated 10 times for 10 s at 20% of maximal power (Fisher Sonic Dismembrator) and then treated according to the protocol. Anti-AR (Cat. No. 5153), anti-H3K4me3 (Cat. No. 9751), anti-H3K9me3 (Cat. No. 13969), anti-H3K9ace (Cat. No. 9649), anti-H3K27ace (Cat. No. 8173) or rabbit IgG (Cat. No. 3900) of Cell Signaling Technology antibody were used to precipitate chromatin fragments from cell extracts. We used real-time quantitative PCR (SYBR green) to amplify the DNA fragment in the antibody precipitated DNA and the unprecipitated input DNA to calculate ΔCT values. A specific primer pair was used to amplify 134 bp of the ARE-containing cyclin D1 promoter fragment. For the histone modification antibody, another four pairs of prime locating at 1000 to −2000 bp region from the transcription initiation site of CCND1 were used besides the prime containing ARE. The RQ values (RQ = 2^–ΔCT) are presented and reflect the precipitated DNA as a percentage of the input DNA.

Compound: C[C@]12CC[C@H]3[C@@H](CCC4=C(O)C(=O)CC[C@@]43C)[C@@H]1CC[C@@H]2O [4-OHT, 4-hydroxytestosterone]
- proliferation of ZR-75-1 cells [1]: inhibits the proliferation of ZR-75-1 cells only at micromolar concentrations
- antiproliferative effect in presence of OH-Flutamide, ZR-75-1 [1]: behave like DHT
- proliferation of MCF-7 cells [2]: strongly antiproliferative
- antiproliferative effect in presence of OH-Flutamide, MCF-7 [2]: behave like DHT
- AR binding to ARE site of CCND1-promoter [3]: almost as strong as that of DHT
- H3K4me3 at CCND1 promoter, relative to untreated control cells [3]: < 20%
- H3K9ac at CCND1 promoter [3]: decreased
- H3K9me3 at CCND1 promoter [3]: increased
- H3K27ac at CCND1 promoter [3]: unchanged

Compound: C=C1C[C@H]2[C@@H]3CC[C@H](O)[C@@]3(C)CC[C@@H]2[C@@]2(C)C=CC(=O)C=C12 [17-HEXE, 17-hydroexemestane]
- antiproliferative effect in presence of OH-Flutamide, ZR-75-1 [1]: behave like DHT
- antiproliferative effect in presence of OH-Flutamide, MCF-7 [2]: behave like DHT
- AR binding to ARE site of CCND1-promoter [3]: almost as strong as that of DHT
- H3K4me3 at CCND1 promoter, relative to untreated control cells [3]: < 20%
- H3K9ac at CCND1 promoter [3]: decreased
- H3K9me3 at CCND1 promoter [3]: increased
- H3K27ac at CCND1 promoter [3]: unchanged

Compound: C[C@]12CCC(=O)C[C@@H]1CC[C@@H]1[C@@H]2CC[C@]2(C)[C@@H](O)CC[C@@H]12 [DHT, dihydrotestosterone]
- proliferation of ZR-75-1 cells [1]: inhibits the proliferation of MCF-7 and ZR-75-1 cells at all tested concentrations
- antiproliferative effect in presence of OH-Flutamide, ZR-75-1 [1]: almost completely abolished
- proliferation of MCF-7 cells [2]: inhibits the proliferation of MCF-7 and ZR-75-1 cells at all tested concentrations
- antiproliferative effect in presence of OH-Flutamide, MCF-7 [2]: almost completely abolished
- AR binding to ARE site of CCND1-promoter [3]: strong increase
